{"source": "paper PMC5303260", "about": "“Efficacy, safety and pharmacokinetics of simeprevir and TMC647055/ritonavir with or without ribavirin and JNJ-56914845 in HCV genotype 1 infection” (BMC Gastroenterology, 2017)", "key": {"[1]": {"set-up": "species or system human", "conditions": "in vivo", "experimental": "Plasma pharmacokinetic samples for simeprevir, TMC647055, ritonavir and JNJ-56914845 were collected over 24 h (pre-dose, 1, 2, 3, 4, 5, 6, 8, 10, 12 and 24 h post-dose) at Week 4 from all patients and assayed using validated liquid chromatography-tandem mass spectrometry methods with lower limits of quantification for simeprevir, TMC647055, ritonavir and JNJ-56914845 of 5.0, 5.0, 2.0 and 1.0 ng/mL, respectively (data on file).\nNo formal sample size calculations were performed as this was a proof-of-concept study. For each efficacy endpoint, the proportion of patients was summarised descriptively together with a 95% confidence interval by treatment group and population. The change in log10 HCV RNA from baseline at all time points was calculated using descriptive statistics. Pharmacokinetic parameters were calculated using non-compartmental analysis (Phoenix WinNonlin® 6.2.1). All safety and tolerability data were summarised descriptively."}, "HCV NS5B": {"system": "HCV NS5B", "test": "Population-based sequencing at time of failure, NS5B region", "set-up": "species or system hepatitis C virus", "conditions": "patients with virologic failure"}, "[2]": {"system": "HCV replicon with NS5B NNI-1 pocket polymorphisms", "test": "In vitro susceptibility of site-directed mutant replicons (baseline NS5B polymorphisms)", "assay_type": "cell-based, hepatitis C virus", "conditions": "NS5B polymorphisms observed at baseline (positions 37, 392, 424, 425, 494, 499) with site-directed mutagenesis data", "excerpt": "NS5B polymorphisms were detected at baseline at the non-nucleoside inhibitor (NNI)-1 binding pocket positions 37, 392, 424, 425, 494 and/or 499 across all panels."}, "HCV GT1, 3, 4, 5 and 6": {"system": "HCV GT1, 3, 4, 5 and 6", "set-up": "method as in PMID 24144360", "conditions": "cited from earlier work"}, "[3]": {"conditions": "cited from earlier work; for change in plasma concentrations on co-administration with JNJ-56914845: healthy volunteers, not considered clinically relevant"}, "HCV NS5A [4]": {"system": "HCV NS5A", "conditions": "all patients with virologic failure in Panel 4"}, "HCV GT1, 4, 5 and 6a/6b": {"system": "HCV GT1, 4, 5 and 6a/6b", "set-up": "method as in PMID 24107072, PMID 24126581", "conditions": "cited from earlier work"}, "[5]": {"system": "organic anion transporting polypeptide (OATP) 1B1/3", "conditions": "cited from earlier work"}, "HCV NS5A [6]": {"system": "HCV NS5A", "set-up": "method as in PMID 24126581", "conditions": "L31M and Y93C (in combination with M28V), GT1a; cited from earlier work"}, "cytochrome P450 (CYP) 3A": {"system": "cytochrome P450 (CYP) 3A", "conditions": "cited from earlier work"}, "P-glycoprotein": {"system": "P-glycoprotein", "conditions": "cited from earlier work"}, "[7]": {"system": "breast cancer resistance protein", "conditions": "cited from earlier work"}, "HCV NS3/4A": {"system": "HCV NS3/4A", "test": "Population-based sequencing at time of failure, NS3/4A region", "set-up": "species or system hepatitis C virus"}}, "note": "Read-outs that look alike come from different tables or passages of the source."}
{"compound": "CC(C)c1nc(CN(C)C(=O)N[C@H](C(=O)N[C@@H](Cc2ccccc2)C[C@H](O)[C@H](Cc2ccccc2)NC(=O)OCc2cncs2)C(C)C)cs1", "note": "[ritonavir]", "values": [{"measurement": "differences in pharmacokinetics based on ribavirin use", "setting": "[1]", "result": "No differences"}]}
{"compound": "COc1ccc2c(c1)C=C1Cn3c-2c(C2CCCCC2)c2ccc(cc23)C(=O)NS(=O)(=O)N(C)CCOCCN(C)C1=O", "note": "[TMC647055]", "values": [{"measurement": "differences in pharmacokinetics based on ribavirin use", "setting": "[1]", "result": "No differences"}, {"measurement": "increase in exposure with dose", "setting": "[1]", "result": "more than dose-proportional increase"}, {"measurement": "resistance-associated variants (RAVs) observed at failure", "setting": "HCV NS5B", "result": "NS5B position 495 (mainly P495L)"}, {"measurement": "fold change in 50 % effective concentration compared to wild-type replicon", "setting": "[2]", "result": "< 2"}, {"measurement": "in vitro antiviral activity", "setting": "HCV GT1, 3, 4, 5 and 6", "result": "in vitro antiviral activity against HCV GT1, 3, 4, 5 and 6"}, {"measurement": "change in plasma concentrations on co-administration with JNJ-56914845", "setting": "[3]", "result": "small increases"}]}
{"compound": "COC(=O)N[C@H](C(=O)N1CCC[C@H]1c1ncc(-c2ccc(-c3ccc(-c4cnc([C@@H]5CC6(CN5C(=O)[C@@H](NC(=O)OC)C(C)C)OCCO6)[nH]4)cc3)cc2)[nH]1)C(C)C", "note": "[JNJ-56914845]", "values": [{"measurement": "emerging RAVs at time of failure", "setting": "HCV NS5A [4]", "result": "NS5A positions 30 and/or 31"}, {"measurement": "in vitro antiviral activity", "setting": "HCV GT1, 4, 5 and 6a/6b", "result": "in vitro antiviral activity against HCV GT1, 4, 5 and 6a/6b"}, {"measurement": "OATP1B1/3 inhibition", "setting": "[5]; in vitro, ref data on file", "result": "inhibits"}, {"measurement": "baseline NS5A polymorphisms and in vitro resistance", "setting": "HCV NS5A [6]", "result": "associated with in vitro resistance"}, {"measurement": "CYP3A substrate status", "setting": "cytochrome P450 (CYP) 3A", "result": "substrate"}, {"measurement": "P-glycoprotein inhibition", "setting": "P-glycoprotein", "result": "inhibits"}, {"measurement": "P-glycoprotein substrate status", "setting": "P-glycoprotein", "result": "substrate"}, {"measurement": "breast cancer resistance protein inhibition", "setting": "[7]", "result": "inhibits"}, {"measurement": "increase in exposure (AUC0–24h) on co-administration of simeprevir", "setting": "[3]; human, in vivo", "result": 2.6, "unit": "fold"}]}
{"compound": "COc1ccc2c(O[C@@H]3C[C@H]4C(=O)N[C@]5(C(=O)NS(=O)(=O)C6CC6)C[C@H]5/C=C\\CCCCN(C)C(=O)[C@@H]4C3)cc(-c3nc(C(C)C)cs3)nc2c1C", "note": "[simeprevir]", "values": [{"measurement": "differences in pharmacokinetics based on ribavirin use", "setting": "[1]", "result": "No differences"}, {"measurement": "exposure compared with historical data for simeprevir 150 mg once daily", "setting": "[1]", "result": "within the range observed in historical data"}, {"measurement": "emerging NS3 mutations at time of failure", "setting": "HCV NS3/4A; GT1a-infected patients with virologic failure (R155K alone or with Q80R; R155S)", "result": "NS3 position 155"}, {"measurement": "emerging NS3 mutation at time of failure", "setting": "HCV NS3/4A; most GT1b-infected patients with virologic failure", "result": "NS3 position 168"}, {"measurement": "OATP1B1/3 inhibition", "setting": "[5]", "result": "inhibits"}, {"measurement": "CYP3A substrate / inhibitor status", "setting": "cytochrome P450 (CYP) 3A", "result": "substrate and mild inhibitor (intestinal only)"}, {"measurement": "P-glycoprotein inhibition", "setting": "P-glycoprotein", "result": "inhibits"}, {"measurement": "change in plasma concentrations on co-administration with JNJ-56914845", "setting": "[3]", "result": "small increases"}]}
